Experiments:
Format in all cases: cell-based
AMPK = AMPK activation (levels of phosphorylated AMPK, Western blotting)
Procedure: (§1) Biochemistry. Western blotting: Cells were lysed in the appropriate volume of lysis buffer (50 mM HEPES, 100 mM NaCl, 2 mM EDTA, 1% glycerol, 50 mM NaF, 1 mM Na3VO4, 1% Triton X-100, with protease inhibitors). The following antibodies were used: HSD17B4 (GeneTex, GTX103864), AMPK (Cell Signaling, 2532), pAMPK (Cell Signaling, 2535), ACC (Cell Signaling, 3676), pACC (Cell Signaling, 11818), p^70 (Cell Signaling, 2708), p-p^70 (Cell Signaling, 9914), S6 (Cell Signaling, 2217), pS6 (Cell Signaling, 4858), MCCA (GeneTex, GTX110062), tubulin (Hybridoma Bank, E7), Actin (Sigma, A1978), His-tag (BD Pharmingen, 552564).

[1] = tested on: acetyl CoA carboxylase (ACC); assay: ACC phosphorylation / activation downstream of AMPK (Western blotting); conditions: PC-3 and LS174T cells
Procedure: as §1

p70 = p70 phosphorylation, mTor pathway (Western blotting); conditions: PC-3 and LS174T cells
Procedure: as §1

[2] = tested on: LS174T colon cancer cells; assay: Fatty acid analysis of treated cells
Procedure: Fatty acid analysis: Free and total fatty acids (after saponification) were prepared as reported previously (Spencer et al. Diabetes 62(5):1709-1717) converted to N-(4-aminomethylphenyl)pyridinium derivatives (Bollinger et al. J Lipid Res 54(12):3523-3530) and quantitated HPLC electrospray ionization tandem mass spectrometry with quantitation accomplished using exogenously added heptadecanoic acid as a recovery standard and reference to offline calibrations generated using authentic fatty acid standards.

[3] = tested on: LS174T colon cancer cells; assay: Cancer cell proliferation (Vi-Cell viability and number); conditions: 10 μM of compound
Procedure: (§2) Cell Culture. LS74T colon cancer cells were cultured in MEM/EBSS (Hyclone SH30024) and PC-3 prostate cancer cells were cultured in DMEM/F-12 HAM Mixture (Sigma D8437) containing 10% Fetal Bovine Serum (Atlanta Biological S11150). Cells (3.5×10^4 cells per well) were split into 12-well plates. After 24 h, 10 μM of each compound were added to each well. DMSO was used as a control. Each experiment was done in triplicate. Cell viability and number were analyzed using the Vi-Cell XR Cell Viability Analyzer (Beckman Coulter). To knock-down HSD17B4 levels, PC-3 and LS174 cell lines were infected with lenti-virus carrying pLKO.1-control shRNA and pLKO.1-HSD17B4b shRNA, respectively. Control shRNA and HSD17B4b shRNA cloned in pLKO.1 vectors with puromycin-resistance selection marker were purchased from Sigma. Lentiviral stocks were prepared as previously described (Yu, 2012).

[4] = tested on: PC-3 prostate cancer cells; assay: as above; conditions: 10 μM of compound
Procedure: as §2

O=c1c(-c2ccc(Cl)cc2)coc2cc(OCCN3C[C@@H]4C[C@@H](C3)c3cccc(=O)n3C4)ccc12 [Compound 10c, (1 S,5S)-3-(2-((3-(4-chlorophenyl)-4-oxo-4H-chromen-7-yl)oxy)ethyl)-3,4,5,6-tetrahydro-1H-1,5-methanopyrido[1,2-a][1,5]diazocin-8(2H)-one]
AMPK activation (AMPK; LS174T colon cancer cells): activated AMPK
AMPK activation (AMPK; PC-3 prostate cancer cells): activated AMPK
ACC phosphorylation [1]: induced appreciable ACC phosphorylation
phosphorylation of p70 (p70): inhibited the phosphorylation
fatty acid levels [2]: reduced the levels of a number of fatty acids
proliferation of LS174T cells [3]: significantly inhibited the proliferation
proliferation of PC-3 cells [4]: significantly inhibited the proliferation
